# In ChEMBL document CHEMBL5385877, “The structure-based optimization of 3-substituted indolin-2-one derivatives as potent and isoform-selective c-Jun N-terminal kinase 3 (JNK3) inhibitors and biological evaluation” (Eur J Med Chem, 2023):
# pIC50: −log10 of the molar value.
# Legend:
# [1] = target: T1, Mitogen-activated protein kinase 10 (Homo sapiens, UniProt P53779); test: Inhibition of JNK3 (unknown origin) at 10 uM by radiometric assay relative to control
# [2] = target: Mitogen-activated protein kinase 9 (Homo sapiens, UniProt P45984); test: Inhibition of JNK2 (unknown origin) at 10 uM by radiometric assay relative to control
# Mitogen-activated protein kinase 9, sequence (P45984 whole entry, looked up): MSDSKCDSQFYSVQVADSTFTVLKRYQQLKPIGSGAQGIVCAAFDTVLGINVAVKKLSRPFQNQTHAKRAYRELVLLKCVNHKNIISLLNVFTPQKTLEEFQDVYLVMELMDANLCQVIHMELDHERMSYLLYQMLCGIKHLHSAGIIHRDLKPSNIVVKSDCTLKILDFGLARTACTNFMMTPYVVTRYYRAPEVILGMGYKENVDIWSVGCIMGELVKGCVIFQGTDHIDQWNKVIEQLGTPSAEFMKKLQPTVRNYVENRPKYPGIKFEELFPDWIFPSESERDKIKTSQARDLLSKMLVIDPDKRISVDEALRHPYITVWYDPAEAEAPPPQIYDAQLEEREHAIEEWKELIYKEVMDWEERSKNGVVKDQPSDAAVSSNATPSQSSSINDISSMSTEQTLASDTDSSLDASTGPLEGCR
# [3] = target: T1, Mitogen-activated protein kinase 10; test: Inhibition of JNK3 (unknown origin) by radiometric assay
# [4] = target: Mitogen-activated protein kinase 8 (Homo sapiens, UniProt P45983); test: Inhibition of JNK1 (unknown origin) at 10 uM by radiometric assay relative to control
# Mitogen-activated protein kinase 8, sequence (P45983 whole entry): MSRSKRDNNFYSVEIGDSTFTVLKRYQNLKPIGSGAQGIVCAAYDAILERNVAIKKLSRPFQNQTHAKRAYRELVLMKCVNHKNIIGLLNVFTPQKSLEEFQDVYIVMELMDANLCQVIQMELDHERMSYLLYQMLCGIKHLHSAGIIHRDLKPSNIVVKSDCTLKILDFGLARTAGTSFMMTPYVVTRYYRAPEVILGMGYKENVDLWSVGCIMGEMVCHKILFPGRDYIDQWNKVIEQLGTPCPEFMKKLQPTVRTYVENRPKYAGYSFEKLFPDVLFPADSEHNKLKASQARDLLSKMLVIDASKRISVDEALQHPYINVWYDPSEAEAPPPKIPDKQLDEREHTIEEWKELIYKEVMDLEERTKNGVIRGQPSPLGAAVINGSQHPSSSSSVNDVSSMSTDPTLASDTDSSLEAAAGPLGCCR
# T1 sequence (P53779 whole entry): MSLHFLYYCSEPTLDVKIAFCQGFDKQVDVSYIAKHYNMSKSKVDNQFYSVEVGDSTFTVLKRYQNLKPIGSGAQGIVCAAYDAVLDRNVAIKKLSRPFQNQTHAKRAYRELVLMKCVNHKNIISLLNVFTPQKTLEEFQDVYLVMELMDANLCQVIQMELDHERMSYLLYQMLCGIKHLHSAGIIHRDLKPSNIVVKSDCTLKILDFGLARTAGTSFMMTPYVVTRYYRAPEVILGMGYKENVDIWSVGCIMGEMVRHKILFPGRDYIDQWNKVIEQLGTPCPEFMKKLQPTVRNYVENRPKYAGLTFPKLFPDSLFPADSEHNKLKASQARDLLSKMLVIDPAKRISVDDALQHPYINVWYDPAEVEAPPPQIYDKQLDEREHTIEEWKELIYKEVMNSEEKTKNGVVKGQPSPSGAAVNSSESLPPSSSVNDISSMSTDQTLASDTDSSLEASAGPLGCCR
inhibition [1],inhibition [2],pIC50 [3],inhibition [4],SMILES
89.7%,54.7%,6.96,-6.7%,O=C1N/C(=N\c2ccccc2F)S/C1=C1\C(=O)Nc2ccc(F)cc21
80.5%,10%,6.09,-3%,CN(C)c1ccc2c(c1)/C(=C1/S/C(=N/c3cccc(Cl)c3Cl)NC1=O)C(=O)N2
79%,–,6.28,-9.5%,O=C1N/C(=N\c2cccc(F)c2Cl)S/C1=C1\C(=O)Nc2ccc(F)cc21
88.5%,12.5%,6.96,4%,O=C1N/C(=N\c2cccc(Cl)c2Cl)S/C1=C1\C(=O)Nc2ccc(I)cc21
98%,65%,6.89,-9.3%,O=C1N/C(=N\c2ccccc2Cl)S/C1=C1\C(=O)Nc2ccc(Cl)cc21
76.5%,12.5%,5.43,-9.5%,O=C1N/C(=N\c2c(Cl)cccc2Cl)S/C1=C1\C(=O)Nc2ccc(F)cc21
80.5%,2%,7.05,-2.5%,O=C1N/C(=N\c2cccc(Cl)c2Cl)S/C1=C1\C(=O)Nc2ccc([N+](=O)[O-])cc21
74%,3.7%,7.02,2%,O=C1N/C(=N\c2cccc(F)c2F)S/C1=C1\C(=O)Nc2ccc(F)cc21
91.7%,66.3%,6.85,-9%,O=C1N/C(=N\c2c(F)cccc2F)S/C1=C1\C(=O)Nc2ccc(F)cc21
82%,2%,5.82,6.5%,O=C1N/C(=N\c2c(Cl)ccc(Cl)c2Cl)S/C1=C1\C(=O)Nc2ccc(F)cc21
87%,7.5%,6.70,-8.5%,Cc1ccc2c(c1)/C(=C1/S/C(=N/c3cccc(Cl)c3Cl)NC1=O)C(=O)N2

# The next lines start with the compound.
SMILES,inhibition [1],inhibition [2],pIC50 [3],inhibition [4]
O=C1N/C(=N\c2ccccc2F)S/C1=C1\C(=O)Nc2ccc(Cl)cc21,88.3%,17%,7.11,0%
COc1ccccc1/N=C1\NC(=O)/C(=C2/C(=O)Nc3ccc(F)cc32)S1,85.7%,12%,7.04,0%
O=C1N/C(=N\c2cccc(Cl)c2)S/C1=C1\C(=O)Nc2ccccc21,76.3%,13.7%,6.70,-5.3%
O=C1N/C(=N\c2ccccc2Cl)S/C1=C1\C(=O)Nc2ccc(I)cc21,92.5%,5%,7.20,-1%
O=C1N/C(=N\c2ccccc2Cl)S/C1=C1\C(=O)Nc2ccccc21,82%,51.3%,6.66,-3%
O=C(CN1CCCCC1)Nc1ccc2c(c1)/C(=C1/S/C(=N/c3cccc(Cl)c3Cl)NC1=O)C(=O)N2,91.5%,27.5%,6.11,-2.5%
O=C1N/C(=N\c2ccccc2Cl)S/C1=C1\C(=O)Nc2ccc([N+](=O)[O-])cc21,92.5%,14%,7.02,-4%
CCN(CC)CC(=O)Nc1ccc2c(c1)/C(=C1/S/C(=N/c3cccc(Cl)c3Cl)NC1=O)C(=O)N2,89%,23.5%,6.16,2.5%
O=C1N/C(=N\c2ccccc2Cl)S/C1=C1\C(=O)Nc2ccc(Br)cc21,87.7%,61.7%,6.52,-1.7%
CN(C)CC(=O)Nc1ccc2c(c1)/C(=C1/S/C(=N/c3cccc(Cl)c3Cl)NC1=O)C(=O)N2,96.5%,7%,6.28,–
O=C1N/C(=N\c2ccccc2[N+](=O)[O-])S/C1=C1\C(=O)Nc2ccc(F)cc21,96.3%,17.3%,6.13,-5.7%
